This note sets out measurements from article PMC6210072 (ACS Omega, 2018).

One assay deals with PARP2 (Homo sapiens, UniProt Q9UGN5). In kind it is biochemical.
The next assay deals with ROCK2 (Homo sapiens, UniProt O75116). The format is biochemical. As to conditions: read-out: ROCK2.
Chain of ROCK2 (O75116 whole entry): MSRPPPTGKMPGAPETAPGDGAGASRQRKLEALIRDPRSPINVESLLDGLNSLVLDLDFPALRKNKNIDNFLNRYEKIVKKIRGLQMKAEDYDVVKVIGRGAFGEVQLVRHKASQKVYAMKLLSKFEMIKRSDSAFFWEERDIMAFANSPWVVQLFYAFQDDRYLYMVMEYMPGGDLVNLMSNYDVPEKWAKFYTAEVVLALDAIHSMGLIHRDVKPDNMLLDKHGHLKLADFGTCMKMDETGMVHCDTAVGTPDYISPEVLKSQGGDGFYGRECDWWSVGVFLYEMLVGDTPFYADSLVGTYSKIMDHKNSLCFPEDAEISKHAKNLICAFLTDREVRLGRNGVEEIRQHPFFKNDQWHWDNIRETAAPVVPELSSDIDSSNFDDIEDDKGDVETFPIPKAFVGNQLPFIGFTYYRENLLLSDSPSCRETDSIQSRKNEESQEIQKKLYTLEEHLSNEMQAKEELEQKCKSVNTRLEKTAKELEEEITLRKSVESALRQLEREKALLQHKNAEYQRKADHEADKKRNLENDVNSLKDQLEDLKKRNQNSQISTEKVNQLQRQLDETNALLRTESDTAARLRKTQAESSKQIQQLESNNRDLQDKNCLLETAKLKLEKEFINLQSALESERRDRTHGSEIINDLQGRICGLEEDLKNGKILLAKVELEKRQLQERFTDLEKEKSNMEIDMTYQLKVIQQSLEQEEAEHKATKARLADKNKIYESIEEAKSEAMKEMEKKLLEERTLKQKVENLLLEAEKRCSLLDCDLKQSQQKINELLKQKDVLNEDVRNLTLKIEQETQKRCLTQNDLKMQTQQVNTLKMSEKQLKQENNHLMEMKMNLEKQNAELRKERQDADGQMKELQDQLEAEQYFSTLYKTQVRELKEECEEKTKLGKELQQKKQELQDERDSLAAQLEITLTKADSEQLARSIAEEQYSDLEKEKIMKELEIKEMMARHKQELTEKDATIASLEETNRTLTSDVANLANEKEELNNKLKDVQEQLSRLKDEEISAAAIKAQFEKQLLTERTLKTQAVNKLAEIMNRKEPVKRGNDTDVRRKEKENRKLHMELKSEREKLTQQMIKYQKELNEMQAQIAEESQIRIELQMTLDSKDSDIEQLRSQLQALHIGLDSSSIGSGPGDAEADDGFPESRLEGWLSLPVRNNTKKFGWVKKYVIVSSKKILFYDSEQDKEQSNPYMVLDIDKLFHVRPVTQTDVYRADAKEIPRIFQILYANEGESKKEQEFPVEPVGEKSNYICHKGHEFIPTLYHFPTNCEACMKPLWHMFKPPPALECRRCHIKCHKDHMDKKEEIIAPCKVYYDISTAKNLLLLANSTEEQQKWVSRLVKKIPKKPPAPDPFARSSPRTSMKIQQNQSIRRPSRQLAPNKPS

Chain of PARP2 (Q9UGN5 whole entry): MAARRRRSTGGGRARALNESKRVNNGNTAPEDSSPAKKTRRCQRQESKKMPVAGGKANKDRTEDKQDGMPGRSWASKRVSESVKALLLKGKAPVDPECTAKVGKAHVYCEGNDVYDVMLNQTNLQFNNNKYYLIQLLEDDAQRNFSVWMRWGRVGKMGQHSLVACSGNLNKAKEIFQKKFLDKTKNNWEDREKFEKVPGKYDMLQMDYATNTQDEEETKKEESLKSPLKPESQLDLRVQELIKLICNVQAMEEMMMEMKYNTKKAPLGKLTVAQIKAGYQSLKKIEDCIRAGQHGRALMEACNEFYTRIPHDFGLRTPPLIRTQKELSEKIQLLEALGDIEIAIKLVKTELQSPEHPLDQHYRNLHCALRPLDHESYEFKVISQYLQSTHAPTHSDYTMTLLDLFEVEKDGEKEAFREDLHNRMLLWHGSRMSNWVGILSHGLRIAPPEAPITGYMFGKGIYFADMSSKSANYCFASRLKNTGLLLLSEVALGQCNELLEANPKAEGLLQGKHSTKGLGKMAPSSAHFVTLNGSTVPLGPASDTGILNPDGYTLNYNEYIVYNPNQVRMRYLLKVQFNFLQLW

For the compound `O=S(=O)(c1cccc2c(O)nccc12)N1CCCNCC1` [compound 4, hydroxyfasudil], the midpoint of inhibition against PARP2, the IC50, lay at 35.1 µM.

In the case of `O=C(COc1cccc2c(=O)[nH]ccc12)c1ccccc1` [compound 6, UPF 1069], the inhibition at 10 µM on ROCK2 came out at 20.5 ± 0.4%.

As usually defined, the IC50 is the concentration needed to halve the response being measured. A low value points to greater potency in that assay.
